Assay results as given in patent US20110097274A1, “Carbon-11 and fluorine-18 labeled radioligands for positron emission tomography (PET) imaging for the brain serotonin transporters” (priority 2002, published 2011).
Where “and” joins values, the source holds several entries; their conditions need not be identical. Equal values may be shown once.

What was measured:
[1] = Plasma free fraction (f1) and filter retention by ultrafiltration; format: in vitro ADME, baboon; details: mean ± SD of four experiments
Procedure: Plasma and ultrafiltrate activities were counted, and f1 was calculated as the ratio of ultrafiltrate activity to total plasma activity. Triplicate aliquots of the radioligand in pH 7.4 Tris buffer were also processed to determine the filter retention of free tracer.

SERT = assay: Baboon PET imaging: brain uptake, kinetic analysis and SERT parameters; format: in vivo
Procedure: PET imaging protocol: PET experiments (n=20) were performed at Columbia University. Two adult male baboons (baboon A and B) were studied twice with each of the 5 radioligands (4 experiments per radioligand). All experiments took place within a 9-month period. Baboons A and B were 31 kg and 21 kg in weight at the beginning of the experimental period and 28 and 22 kg at the end, respectively. Test and retest experiments with the same radioligand were obtained on different days, with an average interval of 117±53 days.
Experiments were performed according to protocols approved by the Columbia-Presbyterian Medical Center Institutional Animal Care and Use Committee. Fasted animals were immobilized with ketamine (10 mg/kg i.m.), and anesthetized with 1.8% isoflurane via an endotracheal tube. Vital signs were monitored every 10 minutes and the temperature was kept constant at 37° C. with heated water blankets. An i.v. perfusion line was used for hydration and injection of radioligands and nonradioactive drugs. A catheter was inserted in a femoral artery for arterial blood sampling. Head was positioned at the center of the field of view as defined by imbedded laser lines. PET imaging was performed with the ECAT EXACT HR+PET scanner (Siemens/CTI, Knoxville, Tenn.). In 3D mode, this camera provides an in-plane resolution of 4.3 mm, 4.5 mm, 5.4 mm and 8.0 mm full width at half maximum (FWHM) at a distance of 0, 1, 10 and 20 cm from the center of the field of view, respectively (Brix et al., 1997). A 15 minute transmission scan was obtained prior to radioligand injection for attenuation correction. Activity was injected i.v. over 30 seconds. […] Emission data was collected in the 3D mode for 91 minutes as 21 successive frames of increasing duration (6*10 seconds, 2*1 minutes, 4*2 minutes, 2*5 minutes, and 7*10 minutes).
Image analysis: A Magnetic Resonance Image (MRI) of each baboon's brain was obtained for the purpose of identifying the regions of interest (ROI) (T1-weighted axial MRI sequence, acquired parallel to the anterior-posterior commissure, TR 34 msec, TE 5 msec, flip angle of 45 degrees, slice thickness is 1.5 mm, zero gap, matrix 1.5 mm×1 mm×1 mm voxels). The following regions were drawn on the MR images: cerebellum, midbrain, thalamus, striatum, hippocampus, temporal cortex, cingulate cortex and occipital cortex.
PET emission data were attenuation-corrected using the transmission scan, and frames were reconstructed using a Shepp filter (cutoff 0.5 cycles/projection rays). Reconstructed image files were then processed using the image analysis software MEDx (Sensor Systems, Inc., Sterling, Va.). An image was created by summing all the frames, and this summed image was used to define the registration parameters with the MR image, using between-modality automated image registration (AIR) algorithm (Woods et al., 1993). Registration parameters were then applied to the individual frames for registration to the MR data set. Regional boundaries were transferred to the individual registered PET frames, and time-activity curves were measured and decay-corrected. Right and left regions were averaged. For a given animal, the same regions were used for all radioligands.
Brain uptake: Total brain uptake was expressed as percentage of the injected dose per gram of tissue (% ID g^−1) in a region encompassing the entire brain. Regional peak time was defined as the mid-time of the frame associated with the highest activity value. To estimate the degree of wash-out from the brain captured during the scan interval (91 minutes), the decrease in activity from the peak frame to the last frame was calculated and expressed in percentage of the peak activity.
Kinetic analysis: Regional total distribution volumes (VT, mL g^−1) were derived with kinetic analysis of the regional time-activity curves, using the arterial plasma concentrations as input function. […]

[2] = BP = VT ROI − VT CER, baboons, mean ± SD of four experiments
[3] = Mean ± SD of four experiments in two baboons
[4] = baboon A, experiments of FIGS. 5-9 (FIG. 10)
[5] = baboons, mean ± SD of four experiments
[6] = last scan 90 minutes, baboons, mean ± SD of four experiments
[7] = one-tissue compartment model, baboons, mean ± SD of four experiments

CN([11CH3])Cc1ccccc1Sc1ccc(CF)cc1N [[^11C]AFM, [^11C]2-[2-(Dimethylaminomethyl)phenylthio]-5-fluoromethylphenylamine]
Filter retention ([1]; activity remaining on filter, radioligand dissolved in saline): 19.3 ± 4.1%
f1 (plasma free fraction) ([1]; baboon plasma, ultrafiltration): 9.6 ± 0.5%
Binding potential Cingulate Cortex (SERT; [2]): 8.5 ± 1.0 mL/g
Binding potential Hippocampus (SERT; [2]): 20.9 ± 2.5 mL/g
Binding potential Midbrain (SERT; [2]): 65.8 ± 11.7 mL/g
Binding potential Occipital Cortex (SERT; [2]): 7.3 ± 1.3 mL/g
Binding potential Striatum (SERT; [2]): 31.3 ± 6.5 mL/g
Binding potential Temporal Cortex (SERT; [2]): 11.8 ± 0.9 mL/g
Binding potential Thalamus (SERT; [2]): 71.3 ± 16.5 mL/g
Equilibrium specific to non-specific partition coefficient (V3″) Cingulate Cortex (SERT; Baboon A, single experiment): 0.30 and 0.26
Equilibrium specific to non-specific partition coefficient (V3″) Hippocampus (SERT; Baboon A, single experiment): 0.70 and 0.75
Equilibrium specific to non-specific partition coefficient (V3″) Midbrain (SERT; Baboon A, single experiment): 2.13 and 2.18
Equilibrium specific to non-specific partition coefficient (V3″) Occipital Cortex (SERT; Baboon A, single experiment): 0.29 and 0.30
Equilibrium specific to non-specific partition coefficient (V3″) Striatum (SERT; Baboon A, single experiment): 0.97 and 0.92
Equilibrium specific to non-specific partition coefficient (V3″) Temporal Cortex (SERT; Baboon A, single experiment): 0.38 and 0.46
Equilibrium specific to non-specific partition coefficient (V3″) Thalamus (SERT; Baboon A, single experiment): 2.10
Equilibrium specific to non-specific partition coefficient (V3″) Cingulate Cortex (SERT; Baboon B, single experiment): 0.30 and 0.25
Equilibrium specific to non-specific partition coefficient (V3″) Hippocampus (SERT; Baboon B, single experiment): 0.61 and 0.69
Equilibrium specific to non-specific partition coefficient (V3″) Midbrain (SERT; Baboon B, single experiment): 1.94 and 2.33
Equilibrium specific to non-specific partition coefficient (V3″) Occipital Cortex (SERT; Baboon B, single experiment): 0.18 and 0.20
Equilibrium specific to non-specific partition coefficient (V3″) Striatum (SERT; Baboon B, single experiment): 1.06 and 1.11
Equilibrium specific to non-specific partition coefficient (V3″) Temporal Cortex (SERT; Baboon B, single experiment): 0.35 and 0.37
Equilibrium specific to non-specific partition coefficient (V3″) Thalamus (SERT; Baboon B, single experiment): 2.46 and 2.58
Equilibrium specific to non-specific partition coefficient (V3″) Cingulate Cortex (SERT; [3]): 0.28 ± 0.02
Equilibrium specific to non-specific partition coefficient (V3″) Hippocampus (SERT; [3]): 0.69 ± 0.06
Equilibrium specific to non-specific partition coefficient (V3″) Midbrain (SERT; [3]): 2.14 ± 0.16
Equilibrium specific to non-specific partition coefficient (V3″) Occipital Cortex (SERT; [3]): 0.24 ± 0.06
Equilibrium specific to non-specific partition coefficient (V3″) Striatum (SERT; [3]): 1.01 ± 0.08
Equilibrium specific to non-specific partition coefficient (V3″) Temporal Cortex (SERT; [3]): 0.39 ± 0.05
Equilibrium specific to non-specific partition coefficient (V3″) Thalamus (SERT; [3]): 2.31 ± 0.25
Thalamus to cerebellum ratio equal to true equilibrium ratio (V3″+1) (SERT; [4]): 3.10
Time at which measured thalamus to cerebellum ratio equals the true equilibrium ratio (estimate of peak specific binding) (SERT; [4]): 64 min
K1, average of all regions and all animals (SERT; baboons): 1.44 ± 0.40 mL/g/min
VT, average of all regions and all animals (SERT; baboons): 57.5 ± 27.5 mL/g
k2, average of all regions and all animals (SERT; baboons): 0.030 ± 0.015 min⁻¹
f2 (free fraction in the nonspecific distribution volume) (SERT; baboons, calculated from f1 and cerebellar VT): 0.32±0.04%
V3″ expressed in percentage of [^11C]McN 5652 V3″ (SERT; baboons, combining all regions): 193±35%
Mean regional peak uptake time (SERT; baboons, mean of all regions): 38 ± 19 min
Mean regional wash-out (% decrease between peak time and last scan) (SERT; baboons, mean of all regions): 32±26%
Cingulate Cortex to cerebellum activity ratio at 90 minutes (SERT; [5]): 1.30 ± 0.09
Hippocampus to cerebellum activity ratio at 90 minutes (SERT; [5]): 1.84 ± 0.40
Midbrain to cerebellum activity ratio at 90 minutes (SERT; [5]): 3.48 ± 1.09
Occipital Cortex to cerebellum activity ratio at 90 minutes (SERT; [5]): 1.26 ± 0.18
Regional uptake peak time Cerebellum (SERT; [5]): 23 ± 11 min
Regional uptake peak time Cingulate Cortex (SERT; [5]): 28 ± 11 min
Regional uptake peak time Hippocampus (SERT; [5]): 39 ± 16 min
Regional uptake peak time Midbrain (SERT; [5]): 56 ± 24 min
Regional uptake peak time Occipital Cortex (SERT; [5]): 30 ± 14 min
Regional uptake peak time Striatum (SERT; [5]): 44 ± 21 min
Regional uptake peak time Temporal Cortex (SERT; [5]): 34 ± 14 min
Regional uptake peak time Thalamus (SERT; [5]): 54 ± 22 min
Striatum to cerebellum activity ratio at 90 minutes (SERT; [5]): 2.10 ± 0.24
Temporal Cortex to cerebellum activity ratio at 90 minutes (SERT; [5]): 1.44 ± 0.20
Thalamus to cerebellum activity ratio at 90 minutes (SERT; [5]): 3.51 ± 0.72
Total brain uptake at 45 min (SERT; baboons, region encompassing the entire brain): 0.016±0.002 % ID g^−1
In vivo affinity relative to [^11C]DASB (times higher) (SERT; from Bmax/KD ratios, assuming same number of binding sites): 3.3 times
Regional activity wash-out: % decrease from peak to last scan, Cerebellum (SERT; [6]): 48 ± 28%
Regional activity wash-out: % decrease from peak to last scan, Cingulate Cortex (SERT; [6]): 43 ± 27%
Regional activity wash-out: % decrease from peak to last scan, Hippocampus (SERT; [6]): 26 ± 27%
Regional activity wash-out: % decrease from peak to last scan, Midbrain (SERT; [6]): 16 ± 22%
Regional activity wash-out: % decrease from peak to last scan, Occipital Cortex (SERT; [6]): 42 ± 27%
Regional activity wash-out: % decrease from peak to last scan, Striatum (SERT; [6]): 29 ± 31%
Regional activity wash-out: % decrease from peak to last scan, Temporal Cortex (SERT; [6]): 36 ± 29%
Regional activity wash-out: % decrease from peak to last scan, Thalamus (SERT; [6]): 18 ± 25%
K1 Cerebellum (SERT; [7]): 1.52 ± 0.49 mL/g/min
K1 Cingulate Cortex (SERT; [7]): 1.48 ± 0.40 mL/g/min
K1 Hippocampus (SERT; [7]): 1.15 ± 0.35 mL/g/min
K1 Midbrain (SERT; [7]): 1.57 ± 0.41 mL/g/min
K1 Occipital Cortex (SERT; [7]): 1.35 ± 0.37 mL/g/min
K1 Striatum (SERT; [7]): 1.48 ± 0.48 mL/g/min
K1 Temporal Cortex (SERT; [7]): 1.25 ± 0.34 mL/g/min
K1 Thalamus (SERT; [7]): 1.68 ± 0.42 mL/g/min
K2 Cerebellum (SERT; [7]): 0.051 ± 0.021 min⁻¹
K2 Cingulate Cortex (SERT; [7]): 0.039 ± 0.012 min⁻¹
K2 Hippocampus (SERT; [7]): 0.023 ± 0.008 min⁻¹
K2 Midbrain (SERT; [7]): 0.017 ± 0.006 min⁻¹
K2 Occipital Cortex (SERT; [7]): 0.036 ± 0.011 min⁻¹
K2 Striatum (SERT; [7]): 0.025 ± 0.010 min⁻¹
K2 Temporal Cortex (SERT; [7]): 0.030 ± 0.010 min⁻¹
K2 Thalamus (SERT; [7]): 0.017 ± 0.006 min⁻¹
VT Cerebellum (VT CER, nonspecific distribution volume) (SERT; [7]): 30.6 ± 3.9 mL/g
VT Cingulate Cortex (SERT; [7]): 39.0 ± 4.7 mL/g
VT Hippocampus (SERT; [7]): 51.5 ± 6.1 mL/g
VT Midbrain (SERT; [7]): 96.3 ± 15.3 mL/g
VT Occipital Cortex (SERT; [7]): 37.9 ± 3.6 mL/g
VT Striatum (SERT; [7]): 61.9 ± 10.4 mL/g
VT Temporal Cortex (SERT; [7]): 42.4 ± 4.5 mL/g
VT Thalamus (SERT; [7]): 101.9 ± 20.4 mL/g
